Source: ChEMBL document CHEMBL4219088, “Novel 4-aminoquinazoline derivatives induce growth inhibition, cell cycle arrest and apoptosis via PI3Kα inhibition” (Bioorg Med Chem, 2018)

Columns and labels:
Type in all cases: functional, cell-based
A549 = experiment: Antiproliferative activity against human A549 cells after 72 hrs by sulforhodamine B assay; conditions: A549, 72 h
SK-HEP1 = experiment: Antiproliferative activity against human SKHEP1 cells after 72 hrs by sulforhodamine B assay; conditions: SK-HEP1, 72 h
MCF7 = experiment: Antiproliferative activity against human MCF7 cells after 72 hrs by sulforhodamine B assay; conditions: MCF7, 72 h
SNU-638 = experiment: Antiproliferative activity against human SNU638 cells after 72 hrs by sulforhodamine B assay; conditions: SNU-638, 72 h
HCT-116 = experiment: Antiproliferative activity against human HCT116 cells after 72 hrs by sulforhodamine B assay; conditions: HCT-116, 72 h
MDA-MB-231 = experiment: Antiproliferative activity against human MDA-MB-231 cells after 72 hrs by sulforhodamine B assay; conditions: MDA-MB-231, 72 h

IC50 (A549) [nM] | IC50 (SK-HEP1) [nM] | IC50 (MCF7) [nM] | IC50 (SNU-638) [nM] | IC50 (HCT-116) [nM] | IC50 (MDA-MB-231) [nM] | Compound
620 | 840 | 28900 | 3960 | 2740 | 380 | COc1ncc(-c2ccc3ncnc(NCCN4CCOCC4)c3c2)cc1NS(=O)(=O)c1ccc(F)cc1F
3140 | 1140 | 4590 | 980 | 1740 | 2580 | CCCCS(=O)(=O)Nc1cc(-c2ccc3ncnc(NCCCN4CCOCC4)c3c2)cnc1OC
3520 | 860 | 4730 | 1260 | 490 | 880 | CCCCS(=O)(=O)Nc1cc(-c2ccc3ncnc(NCCCN(C)C)c3c2)cnc1OC

Further lines, the molecule ahead of its results:

Compound | IC50 (A549) [nM] | IC50 (SK-HEP1) [nM] | IC50 (MCF7) [nM] | IC50 (SNU-638) [nM] | IC50 (HCT-116) [nM] | IC50 (MDA-MB-231) [nM]
COc1ncc(-c2ccc3ncnc(NCCCN(C)C)c3c2)cc1NS(=O)(=O)c1ccc(F)cc1F | 2780 | 4680 | 3660 | 1260 | 2200 | 1540
CCCCS(=O)(=O)Nc1cc(-c2ccc3ncnc(NCc4ccncc4)c3c2)cnc1OC | 9420 | 8980 | 18700 | 6660 | 5720 | 4320
CCCCS(=O)(=O)Nc1cc(-c2ccc3ncnc(NCCN4CCOCC4)c3c2)cnc1OC | 1560 | 440 | 10800 | 610 | 590 | 420
